Where two headings read alike, the source gives them in different places.
Key:
ADAMTS5 [1] = target: T1, ADAMTS5 (Homo sapiens, UniProt Q9UNA0); test: ADAMTS5 enzyme inhibition, aggrecan G1-IGD-G2 cleavage, SDS-PAGE detection (evaluation method 1); format: biochemical; settings: for inhibition rate % (10 nM aptamer): Table 5; for inhibitory activity against ADAMTS5 (in words, compared with parent sequence): enzyme assay as in Example 1; for % inhibitory activity: Table 3, final concentration of the nucleic acid 30 nM; for Inhibitory activity against ADAMTS5: Table 4
T1 construct: purchased R&D systems
T1 sequence (Q9UNA0 262-930): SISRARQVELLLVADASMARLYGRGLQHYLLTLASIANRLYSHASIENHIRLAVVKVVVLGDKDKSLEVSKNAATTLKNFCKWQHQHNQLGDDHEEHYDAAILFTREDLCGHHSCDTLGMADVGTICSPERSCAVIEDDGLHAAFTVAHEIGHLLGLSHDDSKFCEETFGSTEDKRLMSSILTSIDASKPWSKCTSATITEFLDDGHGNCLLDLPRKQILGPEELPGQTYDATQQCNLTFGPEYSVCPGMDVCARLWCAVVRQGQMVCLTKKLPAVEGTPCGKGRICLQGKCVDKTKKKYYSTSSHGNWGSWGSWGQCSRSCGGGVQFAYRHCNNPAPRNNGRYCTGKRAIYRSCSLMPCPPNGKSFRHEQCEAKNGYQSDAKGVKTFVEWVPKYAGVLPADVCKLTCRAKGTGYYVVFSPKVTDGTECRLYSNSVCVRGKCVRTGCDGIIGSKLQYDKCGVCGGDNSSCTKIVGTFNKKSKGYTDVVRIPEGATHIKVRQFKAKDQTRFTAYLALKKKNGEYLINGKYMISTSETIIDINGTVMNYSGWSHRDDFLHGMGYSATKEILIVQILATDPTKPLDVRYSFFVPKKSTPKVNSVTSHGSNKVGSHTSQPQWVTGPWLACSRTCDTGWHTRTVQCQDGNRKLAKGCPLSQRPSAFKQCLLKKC
Procedure: Whether an aptamer having the nucleotide sequence shown in SEQ ID NO: 1 inhibits the enzyme activity of ADAMTS5 was evaluated by the following method. As a substrate of ADAMTS5, the G1-IGD-G2 domain of aggrecan (manufactured by R&D systems) was used. ADAMTS5 specifically cleaves in between the 392nd glutamic acid and the 393rd alanine in the G1-IGD-G2 domain and produces two fragments. These fragments have faster electrophoretic mobility than uncleaved G1-IGD-G2. Thus, the enzyme activity of ADAMTS5 can be measured by quantifying the band intensity of G1-IGD-G2 by SDS-PAGE electrophoresis. The assay was performed in a solution A buffer with a reaction mixture volume of 10 μL. First, a mixture (10 μL) of a nucleic acid and ADAMTS5 was prepared and incubated at 25° C. for 15 min. To a substrate solution (5 μL) diluted with solution A was added a mixture (5 μL) of the nucleic acid and ADAMTS5 to start the enzyme reaction. The final concentration of ADAMTS5 in the reaction solution was 5 nM, and the final substrate concentration was 50 μg/mL. The reaction solution was incubated at 37° C. for 2 hr, 2 μL of solution D was added, and the mixture was heated at 95° C. for 2 min to stop the enzyme reaction of ADAMTS5. Solution D contains 0.25 M tris (pH 6.8), 10% SDS, 50% glycerol, 0.25% bromo phenolblue, and 20% 2-mercaptoethanol. The heat-treated reaction solution was electrophoresed by 7.5% SDS-PAGE and stained with SYPRO Orange (manufactured by Sigma-Aldrich). The staining was performed according to the manual of Sigma-Aldrich and detected using STORM840 manufactured by GE Healthcare. For analytical curves, uncleaved substrates 1000 ng, 400 ng, 160 ng, 64 ng, 25.6 ng, 10.24 ng, and 4.1 ng were electrophoresed, and staining and detection were performed in the same manner. The amount of uncleaved substrate in each reaction solution was quantified from the band intensity and the standard curve. The substrate cleavage efficiency of ADAMTS5 under these reaction conditions was 80-100%. The inhibition rate of the test substance was calculated using the following equation. inhibition rate (%)=(Sapt−SE)/(S0−SE)×100 wherein Sapt is the amount of an uncleaved substrate with the addition of a test substance, SE is the residual amount of an uncleaved substrate with the addition of ADAMTS5, and S0 is the residual amount of an uncleaved substrate without the addition of ADAMTS5.
The concentration of an inhibitor necessary for inhibiting 50% of the enzyme activity (IC50) was determined. IC50 is a mean of four measurements.

ADAMTS5 [2] = target: T1, ADAMTS5; test: binding activity to ADAMTS5 by surface plasmon resonance (Biacore T100); settings: Table 10
Procedure: The binding activity of aptamers having the nucleotide sequences shown in SEQ ID NOs: 1 and 2 to ADAMTS5 was evaluated by the surface plasmon resonance method. Biacore T100 manufactured by GE Healthcare was used for the measurement. The SA chip was used as the sensor chip, which had streptavidin immobilized thereon. About 800 RU of a 16-nucleotide Poly dT with biotin at the 5′-terminal was bound on the chip. […] ADAMTS5 for analyte was prepared at 0.1 μM, and injected at a flow rate of 30 μL/min for 60 sec. As the running buffer, solution C was used. The solution C is a mixed solution of 300 mM sodium chloride, 5.4 mM potassium chloride, 1.8 mM calcium chloride, 0.8 mM magnesium chloride, 20 mM tris (pH 7.6), and 0.05% Tween20.
SEQ ID NO: 2 has a sequence with one base deletion from the continuous 4 G bases in the consensus sequence, and it was shown from the measurement results of the binding activity that the continuous 4 G bases in the consensus sequence are important for the activity of aptamers. Sensorgram showing the binding of an aptamer having the nucleotide sequence shown in SEQ ID NO: 1 to ADAMTS5 is presented in FIG. 2. In Table 1, “++” indicates those with the proportion of ADAMTS5 binding amount (RU value) to the amount of aptamer immobilized on the SA chip (RU value) of not less than 40%, “+” indicates those with the proportion of not less than 10% and less than 40%, and “−” indicates those with the proportion of less than 10%.
The binding activity and enzyme inhibitory activity of aptamers having nucleotide sequences shown in SEQ ID NOs: 16-25 to ADAMTS5 were measured. The binding activity was evaluated by the surface plasmon resonance method. For the measurement, a method similar to that in Example 1 was used. The enzyme inhibitory activity was measured by a method similar to that in Example 1. […] The negative control nucleic acid refers to the nucleic acid pool used in the first round of the SELEX method. The “++” indicates those with the proportion of ADAMTS5 binding amount (RU value) to the amount of aptamer immobilized on the SA chip (RU value) of not less than 40%, and “+” indicates those with the proportion of less than 40%. […] “n.d.” means not determined.
The binding activity of the nucleic acids shown in SEQ ID NOs: 30-45 to ADAMTS5 was measured. The binding activity was evaluated by the surface plasmon resonance method. In the Table, “++” indicates those with the proportion of ADAMTS5 binding amount (RU value) to the amount of aptamer immobilized on the SA chip (RU value) of not less than 40%, “+” indicates those with the proportion of not less than 10% and less than 40%, and “−” indicates those with the proportion of less than 10%.

[3] = Table 9, electrophoresis detection, 10 nM nucleic acid

10 (AUUGGGGCCUCCACAGCUGCUCAGCUUGGACUAAACCAAU; 2'-F and 2'-O-methyl modifications at positions not given here) [compound 10]
inhibition rate % (10 nM aptamer) (ADAMTS5 [1]; 10 nM aptamer): 65%
inhibitory activity (%) evaluation method 1 (ADAMTS5 [1]; Table 6, 10 nM aptamer): 65%

38 (GGGUAUUGGGGCCUCCACGCUAGAAGGCUGGACUAAACCAACUCGA; aptamer; 2'-fluoro at CU, RNA at AG, backbone not given here) [compound 38]
binding activity (ADAMTS5 [2]): ++ (proportion of ADAMTS5 binding amount (RU value) to the amount of aptamer immobilized on the SA chip (RU value) of not less than 40%)

40 (GGGUAUUGGGGCCUCCACGCAAUGGUGCUGGACUAAACCAACUCGA; aptamer; 2'-fluoro at CU, RNA at AG, backbone not given here) [compound 40]
binding activity (ADAMTS5 [2]): ++ (proportion of ADAMTS5 binding amount (RU value) to the amount of aptamer immobilized on the SA chip (RU value) of not less than 40%)

43 (GGGUAUUGGGGCCUCCACAGAAAAUUCUUGGACUAAACCAACUCGA; aptamer; 2'-fluoro at CU, RNA at AG, backbone not given here) [compound 43]
binding activity (ADAMTS5 [2]): ++ (proportion of ADAMTS5 binding amount (RU value) to the amount of aptamer immobilized on the SA chip (RU value) of not less than 40%)

13 (GCUGGGGCCUCCACAGCGCUCGCUUGGACUAAACCAGC; chemically modified, pattern not given here) [compound 13]
inhibitory activity (%) evaluation method 1 (ADAMTS5 [1]; Table 6, 10 nM aptamer): 58.4%
inhibitory activity against ADAMTS5 (in words, compared with parent sequence) (ADAMTS5 [1]): does not affect the inhibitory activity

26 (GGGUAUAGGGGCCUCCACAGCGUAAGCUUGGACUUAAACCAUACCC; listed as RNA, chemistry not given here) [compound 26]
inhibitory activity % 30 nM aptamer (ADAMTS5 [1]; Table 8, 30 nM aptamer): 63.5%

29 (CGUAGGGGCCUCCACAGCAUUCGCUUGGACACAAACCACG; aptamer; 2'-O-methyl modifications copied from another aptamer, pattern not given here, some with 3' inverted dT) [compound 29]
inhibitory activity % 10 nM aptamer (ADAMTS5 [1]; Table 8, 10 nM aptamer): 84%
inhibitory activity (%) evaluation method 1 (ADAMTS5 [1]; [3]): 84%

4 (GGCUUGGGGCCUCCACAGCUGCUCAGCUUGGACUAAACCAAGCC; 2'-fluoro at CU, RNA at AG, backbone not given here) [compound 4]
% inhibitory activity (ADAMTS5 [1]): 23%

8 (GGCUUGGGGCCUCACAGCUGCUCAGCUUGACUAAACCAAGCC; 2'-fluoro at CU, RNA at AG, backbone not given here) [compound 8]
% inhibitory activity (ADAMTS5 [1]): −8.6%

6 (GGCUUGGGGCCUCCACAGCUGUCAGCUUGGACUAAACCAAGCC; 2'-fluoro at CU, RNA at AG, backbone not given here) [compound 6]
% inhibitory activity (ADAMTS5 [1]): 33.7%

14 (AUUGGGGCCUCCACAGCUUCGGCUUGGACUAAACCAAU; listed as RNA, chemistry not given here) [compound 14]
inhibitory activity (%) evaluation method 1 (ADAMTS5 [1]; Table 6, 10 nM aptamer): 60.5%
inhibitory activity against ADAMTS5 (in words, compared with parent sequence) (ADAMTS5 [1]): does not affect the inhibitory activity

12 (UUGGGGCCUCCACAGCGCUCGCUUGGACUAAACCAA; chemically modified, pattern not given here) [compound 12]
inhibition rate % (10 nM aptamer) (ADAMTS5 [1]; 10 nM aptamer): 71.1%

27 (UAUAGGGGCCUCCACAGCGUAAGCUUGGACUUAAACCAUA; aptamer; 2'-O-methyl modifications copied from another aptamer, pattern not given here, some with 3' inverted dT) [compound 27]
IC50 (ADAMTS5 [1]; Table 8, read-out: IC50): 5.9 nM

7 (GGCUUGGGGCCUCCACAGCUGCUCAGCUUGGACUAACCAAGCC; 2'-fluoro at CU, RNA at AG, backbone not given here) [compound 7]
% inhibitory activity (ADAMTS5 [1]): −2.3%

11 (AUUGGGGCCUCCACAGCGCUCGCUUGGACUAAACCAAU; 2'-F and 2'-O-methyl modifications at positions not given here) [compound 11]
inhibition rate % (10 nM aptamer) (ADAMTS5 [1]; 10 nM aptamer): 59.8%
inhibitory activity (%) evaluation method 1 (ADAMTS5 [1]; Table 6, 10 nM aptamer): 59.8%

9 (GGAUUGGGGCCUCCACAGCGUCGCUUGGACUAAACCAAUCC; 2'-fluoro at CU, RNA at AG, backbone not given here) [compound 9]
% inhibitory activity (ADAMTS5 [1]): 5.9%

28 (CGUAGGGGCCUCCACAGCGUAAGCUUGGACUUAAACCACG; aptamer; 2'-O-methyl modifications copied from another aptamer, pattern not given here, some with 3' inverted dT) [compound 28]
IC50 (ADAMTS5 [1]; Table 8, read-out: IC50): 3.4 nM
inhibitory activity (%) evaluation method 1 (ADAMTS5 [1]; [3]): 81%

5 (GGCUUGGGGCCUCCACAGCGCUCGCUUGGACUAAACCAAGCC; 2'-fluoro at CU, RNA at AG, backbone not given here) [compound 5]
% inhibitory activity (ADAMTS5 [1]): 27%

3 (GGAUUGGGGCCUCCACAGCUGCUCAGCUUGGACUAAACCAAUCC; 2'-fluoro at CU, RNA at AG, backbone not given here) [compound 3]
% inhibitory activity (ADAMTS5 [1]): 36.4%
Inhibitory activity against ADAMTS5 (ADAMTS5 [1]; nucleic acid concentration 10 nM): 33.9%
Inhibitory activity against ADAMTS5 (ADAMTS5 [1]; nucleic acid concentration 30 nM): 58.4%

Cn1nc(C(F)(F)F)c(/C=C2\SC(=S)NC2=O)c1SCc1ccc(Cl)cc1 [reference compound]
IC50 (ADAMTS5 [1]; positive control, read-out: IC50 value): 90500 nM

From US11473089B2, “Aptamer for ADAMTS5 and use for aptamer for ADAMTS5” (RIBOMIC INC., priority 2017, dated 2022)
